According to the supplement of paper PMC13380429:

Legend:
Details in all cases: 72 h
[1] = system: Caco-2; assay: cell viability relative to DMSO; higher = less toxic
[2] = system: Calu-3; assay: as above
[3] = system: HepG2; assay: as above
[4] = system: U2OS; assay: as above
[5] = system: Vero E6; assay: as above
[6] = system: Caco-2; assay: relative viability EC50 (midpoint between 100% and the lowest measured viability); higher = less toxic
[7] = system: Calu-3; assay: as above
[8] = system: HepG2; assay: as above
[9] = system: U2OS; assay: as above
[10] = system: Vero E6; assay: as above
[11] = system: Caco-2; assay: drug sensitivity score (DSS) for viability; higher = more toxic; extreme values may be limits of the assay
[12] = system: Calu-3; assay: as above
[13] = system: HepG2; assay: as above
[14] = system: U2OS; assay: as above
[15] = system: Vero E6; assay: as above

Row | Compound | cell viability ([1]; 1 nM) [%] | cell viability ([1]; 10 nM) [%] | cell viability ([1]; 100 nM) [%] | cell viability ([1]; 1000 nM) [%] | cell viability ([1]; 10000 nM) [%] | cell viability ([2]; 1 nM) [%] | cell viability ([2]; 10 nM) [%] | cell viability ([2]; 100 nM) [%] | cell viability ([2]; 1000 nM) [%] | cell viability ([2]; 10000 nM) [%] | cell viability ([3]; 1 nM) [%] | cell viability ([3]; 10 nM) [%] | cell viability ([3]; 100 nM) [%] | cell viability ([3]; 1000 nM) [%] | cell viability ([3]; 10000 nM) [%] | cell viability ([4]; 1 nM) [%] | cell viability ([4]; 10 nM) [%] | cell viability ([4]; 100 nM) [%] | cell viability ([4]; 1000 nM) [%] | cell viability ([4]; 10000 nM) [%] | cell viability ([5]; 1 nM) [%] | cell viability ([5]; 10 nM) [%] | cell viability ([5]; 100 nM) [%] | cell viability ([5]; 1000 nM) [%] | cell viability ([5]; 10000 nM) [%] | relative viability EC50 [6] [µM] | relative viability EC50 [7] [µM] | relative viability EC50 [8] [µM] | relative viability EC50 [9] [µM] | relative viability EC50 [10] [µM] | drug sensitivity score [11] | drug sensitivity score [12] | drug sensitivity score [13] | drug sensitivity score [14] | drug sensitivity score [15]
1 | CCCCc1nc(Cl)c(CO)n1Cc1ccc(-c2ccccc2-c2nnn[nH]2)cc1 [losartan] | 94.1 | 102 | 93.2 | 94.7 | 95.5 | 103 | 84.4 | 96.2 | 97.5 | 94.6 | 110 | 116 | 104 | 96.7 | 96.7 | 99.1 | 104 | 96.4 | 105 | 96.5 | 103 | 102 | 102 | 98.1 | 101 | > 10 | > 10 | > 10 | > 10 | > 10 | 0 | 0 | 0 | 0 | 0
2 | Cc1cccc(CN2CCN(C(c3ccccc3)c3ccc(Cl)cc3)CC2)c1 (stereo not given) [meclizine] | 91.9 | 101 | 97.1 | 99.5 | 85.8 | 92.7 | 88.4 | 95.7 | 94.1 | 87.6 | 102 | 108 | 106 | 92.3 | 90 | 96.5 | 98.6 | 93.6 | 101 | 91.6 | 107 | 105 | 103 | 102 | 97.7 | > 10 | > 10 | > 10 | > 10 | > 10 | 0.2 | 0 | 0 | 0 | 0
3 | CC(=O)[C@@]1(O)CC[C@H]2[C@@H]3C[C@H](C)C4=CC(=O)CC[C@]4(C)[C@H]3CC[C@@]21C [medroxyprogesterone] | 96.8 | 96.7 | 92.4 | 91.7 | 89.1 | 86.5 | 104 | 95.6 | 104 | 103 | 94.7 | 98.5 | 103 | 106 | 84.1 | 105 | 97.3 | 97.5 | 94.4 | 94.8 | 105 | 99.5 | 98.1 | 99 | 89 | > 10 | > 10 | > 10 | > 10 | > 10 | 0 | 0 | 0.2 | 0 | 0
4 | C[N@+]1(CC2CC2)CC[C@]23c4c5ccc(O)c4O[C@H]2C(=O)CC[C@@]3(O)[C@H]1C5 [methylnaltrexone] | 101 | 95.6 | 99.8 | 94.2 | 90.8 | 104 | 95 | 107 | 97.1 | 103 | 93.2 | 97.7 | 91.9 | 96.8 | 92.3 | 104 | 95.2 | 98.4 | 97.5 | 99.6 | 97.3 | 105 | 96.9 | 97.2 | 94.5 | > 10 | > 10 | > 10 | > 10 | > 10 | 0 | 0 | 0 | 0 | 0
